System: NIH/3T3 cell
Assay: Cell adhesion activity detection (LDH kit, OD492 nm)
Format: cell-based
Settings: for cell adhesion activity (absorbance at OD492 nm) compared with natural human collagen: protein coated at 0.5 mg/mL, NIH/3T3 cells, 60 minutes, FIG. 26
Procedure: References for Detection Method for Cell Adhesion Activity of Recombinant Small-Molecule Collagen: Juming Yao, Satoshi Yanagisawa, Tetsuo Asakura. Design, Expression and Characterization of Collagen-Like Proteins Based on the Cell Adhesive and Crosslinking Sequences Derived from natural Collagens, J Biochem. 136, 643-649 (2004).
Specific implementation method: A NIH/3T3 cell was cultured under standard conditions (purchased from Cell Bank of the Chinese Academy of Sciences, with catalog number of GNM6. Culture and passage methods followed a cell instruction). […] A natural human collagen (Sigma, Catalog No. C7774) was compared to a bovine serum albumin solution (BSA, purchased from Sangon Biotech (Shanghai) Co., Ltd.) (in ultrapure water or 1M HCl solution). Protein concentration was determined using the UV protein quantification empirical formula: C (mg/mL)=0.144×(A215-A225). Then, the protein was diluted to 0.5 mg/mL with PBS (pH 7.4).
100 μL of various protein solutions and blank PBS solution were added to a 96-well cell culture plate, and set aside 60 minutes at room temperature. Then, […] NIH/3T3 cells with good culture status were added to each well, and incubated at 37° C. and 5% CO2 for 60 minutes. The cells were cleaned in the wells 4 times with PBS. An absorbance value at OD492 nm was detected using a LDH detection kit (Roche, 04744926001). Data were analyzed and subject to significant differential analysis (SPSS 22 software, Duncan's method, P<0.05).
The absorbance value at OD492 nm characterized the cell adhesion activity of a collagen sample: higher adhesion activity indicated more cells adhering to the protein.

[1] = equivalent concentrations (0.5 mg/mL), NIH/3T3, Duncan's method P<0.05

Molecule	cell adhesion activity compared with larger-molecular-weight recombinant type-XVII collagen [1]	cell adhesion activity (absorbance at OD492 nm) compared with natural human collagen	cell adhesion activity compared with larger-molecular-weight recombinant type-III collagen [1]
17S1NNT: 82 amino acids, positions 636 to 718 of full-length human collagen XVII, SEQ ID NO.5	no significant difference	comparable to or superior to that of a natural human collagen	
3A5D1NT: 96 amino acids, positions 990 to 1085 of full-length human type III collagen, SEQ ID NO.1 (protein, listed as Homo sapiens, Recombinant small-molecule collagen 3A5D1NT) DGNPGSDGLPGRDGSPGGKGDRGENGSPGAPGAPGHPGPPGPVGPAGKSGDRGESGPAGPAGAPGPAGSRGAPGPQGPRGDKGETGERGAAGIKGH		comparable to or superior to that of a natural human collagen	significantly outperformed
